Measured values taken from EP1490080B1, “medical use of anthocyanins extracted from black rice” (Forbes Medi-Tech Inc., priority 2002, dated 2003).

Legend:
supercoiled DNA [1] = assay: Peroxyl radical (AAPH) induced supercoiled DNA scission, agarose gel electrophoresis; assay type: biochemical
From the text: The effects of the anthocyanin composition in preventing DNA oxidation induced by oxidative radicals such as the peroxyl radical and hydroxyl radicals (site specific and non-site specific) were investigated. […] A similar effect was seen by the addition of cyanidin-3-glucoside and peonidin-3-glucoside in combination at various ratios Figure 11).
(§1) Both peroxyl radical and hydroxyl radical were applied in this test to evaluate the effect of black rice extract of the present invention in preventing DNA scission by 0.7% agarose gel electrophoresis with 0.5µg/ml ethidium bromide using TAE buffer (40mM Tris-acetate, 2mM EDTA, pH8.5). DNA bands were visualized by ultraviolet bench top transilluminator (UVP Inc., Upland, CA) and densities of bands were analyzed by LabWork software (UVP Inc., Upland, CA). The inhibition of DNA nicking was calculated as following equation: %Inh = (Dnative -Dsample)/(Dnative -Doxidative) × 100 [formula]
(§2) Dnative, Doxidative. Dsample represented the density of DNA without AAPH, DNA with AAPH and DNA with AAPH and test sample, respectively.

[2] = tested on: LPS-activated mouse macrophage cell RAW264.7; assay: Inhibition of nitric oxide (nitrite, Griess reagent) in LPS-activated macrophage cells; assay type: cell-based; details: mean±SD, 1µg/ml LPS 24 hr
Description: Mouse macrophage cell RAW 264.7 (ATCC) was cultured in DMEM medium supplemented with 10% fetal bovine serum and antibiotics (100U/ml of penicillin and […]) at 37°C under 5% CO2, Cell was plated at a density of 2×10^5 cells/well into 96-well plates. After overnight growth when cells adhered to the bottom of well, various amount of the black rice extract in PBS and 1µg/ml bacterial lipopolysaccharide (LPS, Escheridchia coli, serotype 0111:B4) were added for another 24 hr. Medium was aliquot (100µl) to another 96-well plate where 100µl of Greiss reagent (1% sulfanilamide in 5% phosphoric acid and 0.1 % naphthylethylenediamine dihydrocholide in water, 1:1 v/v) was then added. Absorbance at 540nm was determined with ELISA plate reader. The concentration of nitrite was measured in according to standard curve obtained from the same procedure. The inhibition of nitric oxide was calculated according to the following equation: %Inhibition = (Abspositive -Abssample)/(Abspositive -Absnegative) × 100 [formula] of which, Abspositive, Absnegative, Abssample represent absorbance of cultural media with LPS, without LPS and sample with LPS.
Large amount of nitric oxide expression was made possible by using mouse macrophage cell line RAW264.7 co-incubated with bacterial LPS. The measurement of nitric oxide was indirectly measured by its metabolite nitrite in the supernatant of cell cultural media by Griess reagent.

supercoiled DNA [3] = assay: DNA nicking induced by non-site specific hydroxyl radical, agarose gel electrophoresis; assay type: biochemical
Description: (§3) In this hydroxyl radical model, the hydroxyl radical was generated by ascorbic acid mediated Fenton reaction.
as §1, §2
(§4) In the present study, we adapted the concept of both non-site specific and site-specific hydroxyl radical and applied these to the DNA scission assays (Figures 10 and 11). It is evident that hydroxyl radical, no matter site-specific or non-site specific broke the integrity of supercoiled DNA strand (lane 2 of Figure 10).

supercoiled DNA [4] = assay: DNA nicking induced by site-specific hydroxyl radical, agarose gel electrophoresis; assay type: biochemical
Description: as §3, §1, §2, §4

Structure (SMILES)	protection on the DNA strand scission (supercoiled DNA [1]; 1µg/ml)	protection on the DNA strand scission (supercoiled DNA [1]; 5µg/ml)	Inhibition percentage of nitric oxide ([2]; 1µM)	Inhibition percentage of nitric oxide ([2]; 10µM)	Inhibition percentage of nitric oxide ([2]; 100µM)	inhibition at 1 µM ([2]; Mus musculus, RAW264.7, 1µM, read-out: Inhibition percentage of nitric oxide)	inhibition at 10 µM ([2]; Mus musculus, RAW264.7, 10µM, read-out: Inhibition percentage of nitric oxide)	inhibition at 100 µM ([2]; Mus musculus, RAW264.7, 100µM, read-out: Inhibition percentage of nitric oxide)	Inhibition percentage, Non-site specific (supercoiled DNA [3]; 0.17 µg/ml)	Inhibition percentage, Non-site specific (supercoiled DNA [3]; 1.7 µg/ml)	Inhibition percentage, Site specific (supercoiled DNA [4]; 0.17 µg/ml)	Inhibition percentage, Site specific (supercoiled DNA [4]; 1.7 µg/ml)	%Inh (supercoiled DNA [1]; 10µg/ml)	recovery of peroxyl radical damage to the supercoiled DNA strand (supercoiled DNA [1]; Figure 10)
COc1cc(-c2[o+]c3cc(O)cc(O)c3cc2O[C@@H]2O[C@H](CO)[C@@H](O)[C@H](O)[C@H]2O)ccc1O [Peonidin-3-glucoside, peonidin-3-O-glucoside]	11.4%	44.1%	14.4±0.6%	22.3±3.7%	35.0±2.5%	–	–	–	–	–	–	–	–	–
OC[C@H]1O[C@@H](Oc2cc3c(O)cc(O)cc3[o+]c2-c2ccc(O)c(O)c2)[C@H](O)[C@@H](O)[C@@H]1O [Cyanidin-3-glucoside, cyanidin-3-O-glucoside]	11.5%	45.3%	–	–	–	12.7 ± 2.7%	23.1 ± 0.9%	72.9 ± 4.8%	–	–	–	–	–	–
Cc1c(C)c2c(c(C)c1O)CCC(C)(C(=O)O)O2 (stereo not shown) [Trolox]	–	–	–	–	–	–	–	–	44.0%	80.8%	25.7%	61.0%	100%	partial recovery
